According to patent publication US20110214196A1, “DEVELOPMENT OF HERBICIDE-RESISTANT GRASS SPECIES” (University of Georgia Research Foundation, priority 2008, published 2011):

Columns and labels:
[1] = system: original parental line, Mauna Kea (PT); assay: Whole plant greenhouse dose-response, Poast herbicide (Example 9); assay type: in vivo, seashore paspalum (Paspalum vaginatum)
Excerpt: (§1) A second greenhouse experiment was initiated to evaluate SR plants regenerated from a second sethoxydim-resistant cell line, Line B, for sethoxidim resistance at the whole plant level. In the previous experiment (Example 8), minor injury occurred on Line A at higher concentrations of Segment™ sethoxydim herbicide. These injury symptoms were more indicative of surfactant injury rather than sethoxydim injury. […] Plants were transplanted to Cone-tainers™ measuring 4×14 cm and tapering to 1 cm (Stuewe and Sons Inc., Corvallis, Oreg.) containing a 1:1 mix of Fafard® 3B mix and sand and placed on benches under sodium lights in a greenhouse with a 16-h photoperiod maintained at 27/32° C. day/night for approximately two weeks prior to application of herbicide treatments.
(§2) Each of the four genotypes (Line A, Line B, PT and TCC) were treated with 0, 50, 100, 200, 400, 800, 1600, 3200 and 6400 g ai ha^−1 rates of sethoxydim using Poast™ herbicide (BASF Corp., Florham Park, N.J.). All herbicide rates were applied at a spray volume of 1871 ha^−1 in an experimental spray chamber, and after drying, the plants were returned to the greenhouse bench and maintained under the conditions described above. Visual estimates of crop injury were recorded at 16, 21, and 28 d after treatment (DAT) using a scale of 0 to 100, where 0 equals no injury and 100 equals complete death. The experiment was a four by nine factorial with four genotypes and nine herbicide rates. Treatments were arranged in a randomized complete block design. Four replications were used for all four genotypes. Data were first analyzed using a two-way analysis of variance (SAS, 2008) and subsequently analyzed within herbicide rate. Differences among genotype means at each herbicide rate were determined using Fisher's Least Significant Difference (LSD).

[2] = system: sethoxydim-resistant Line A; assay: as above; assay type: in vivo, seashore paspalum (Paspalum vaginatum)
Excerpt: as §1, §2

[3] = system: sethoxydim-resistant Line B; assay: as above; assay type: in vivo, seashore paspalum (Paspalum vaginatum)
Excerpt: as §1, §2

[4] = system: Mauna Kea line regenerated from tissue culture (TCC); assay: as above; assay type: in vivo, seashore paspalum (Paspalum vaginatum); details: for injury score: TCC
Excerpt: as §1, §2

[5] = system: Large crabgrass (Digitaria sanguinalis) F2; assay: Large crabgrass dose response study, F2 from self-pollinated surviving plants; assay type: in vivo
Method: (§3) Plants were grown from seed collected from a turfgrass sod farm near where sethoxydim had been continuously used for twelve years. Seeds were planted in 250 mL styrofoam cups with a potting mixture of pure sand in a glasshouse with supplemental lighting (300 uE/m2/s) and 30/25 temperature. Plants were watered once daily and fertilized once a week. Large crabgrass plants were treated with herbicides when 3-5 cm tall in a dose response study. Four herbicides (sethoxydim, fluazifop, clethodim, and pinoxaden) were applied at […]. Plant injury was observed 7 and 14 DAT. The experimental design consisted of a randomized complete block design with three replications. The experiment was replicated in time.
In response to all four herbicides, the plants initially illutrated typical ACCase symptomology, but recovered in 7-14 days after treatment (DAT). […] Seeds from self-pollinated surviving large crabgrass plants were collected and analyzed using the same dose response design as state before. […] The ED50 was approximately 10 times greater for the resistant (R) population than that for the wild type (S) population.

[6] = system: Large crabgrass (Digitaria sanguinalis); assay: Large crabgrass dose response study, plants from sod farm seed; assay type: in vivo
Method: as §3

[7] = system: sethoxydim-resistant Line A; assay: Whole plant greenhouse dose-response, Segment herbicide (Example 8); assay type: in vivo, seashore paspalum (Paspalum vaginatum)
Method: Sethoxydim-resistant plants regenerated from a sethoxydim-resistant cell line, Line A, were tested for resistance at the whole plant level in a dose-response experiment conducted in a greenhouse. In this experiment, Line A was compared to two herbicide-susceptible controls; the original parent line, Mauna Kea (PT); and a Mauna Kea line regenerated from tissue culture (TTC). Plants were transplanted to Cone-tainers™ measuring 4×14 cm and tapering to 1 cm (Stuewe and Sons Inc., Corvallis, Oreg.) containing a 1:1 mix of Fafard® 3B mix and sand and placed on benches under sodium lights in a greenhouse with a 16 hour photoperiod maintained at 27/32° C. day/night for two weeks prior to treatment applications. Each of the three genotypes, Line A, PT and TC were treated with 0, 50, 100, 200, 400, 800, 1600, and 3200 g ai ha^−1 rates of sethoxydim using Segment™ herbicide (BASF Corp., Florham Park, N.J.). All herbicide rates were applied at a spray volume of 1871 ha^−1 in an experimental spray chamber, and after drying, returned to the greenhouse bench and maintained under the conditions described above. Visual estimates of crop injury were recorded at 7, 14, 21, and 28 days after treatment (DAT) using a scale of 0 to 100, where 0 equals no injury and 100 equals complete death. At 42 days after treatment, the above ground portion of all plants was harvested, dried for 48 hours at a temperature of 50° C., and weighed to determine plant dry weight. Treatments were arranged in a randomized complete block design. Only two replications of TCC were possible due to limited plant materials; otherwise four replications were used for the other two genotypes (PT and Line A). Data were first analyzed using a two-way analysis of variance and subsequently analyzed within herbicide rate. Differences among genotype means at each herbicide rate were determined using Fisher's Least Significant Difference (LSD).

[8] = at rates of 400 g ai ha^−1, scale of 0 to 100
[9] = at rates of 1600 g ai ha^−1 or more
[10] = all rates up to 6400 g ai ha^−1

CCC/C(=N\OCC)C1=C(O)CC(CC(C)SCC)CC1=O (stereo not drawn) [sethoxydim, 2-[1-(ethoxyimino)-butyl]-5-[2-(ethylthio)propyl]-3-hydroxy-2-cylohexen-1-one]
LD50 [1]: 720 g ai ha^−1 | injury score [1, 8]: ≥ 27 | injury score [1, 9]: ≥ 80% | LD50 [2]: > 6400 g ai ha^−1 | maximum injury score observed [2, 10]: less than 20% | LD50 [3]: > 6400 g ai ha^−1 | maximum injury score observed [3, 10]: less than 20% | LD50 ([4]; TC): 782 g ai ha^−1 | injury score [4, 8]: ≥ 27 | injury score [4, 9]: ≥ 80% | effective dose required to cause 50% injury (ED50) [5]: 179±4 g ai/ha | resistance or susceptibility of this population of large crabgrass ([6]; conclusion from ED50 values): resistant | ED50 of resistant (R) population relative to wild type (S) population ([6]; crabgrass, FIG. 17): approximately 10 times | effective dose required to cause 50% injury (ED50) ([6]; large crabgrass grown from sod farm seed, treated when 3-5 cm tall): 245±37 g ai/ha | LD50 [7]: > 3200 g ai ha^1 | Plant Injury ([7]; 50 g a.i. ha^−1, 7 DAT): 2.9a % | Plant Injury ([7]; 50 g a.i. ha^−1, 14 DAT): 0.0b % | Plant Injury ([7]; 50 g a.i. ha^−1, 21 DAT): 1.2a % | Plant Injury ([7]; 50 g a.i. ha^−1, 28 DAT): 0.0a % | Dry Weight ([7]; 50 g a.i. ha^−1, 42 DAT): 1.7a grams | Plant Injury ([7]; 100 g a.i. ha^−1, 7 DAT): 0.8a % | Plant Injury ([7]; 100 g a.i. ha^−1, 14 DAT): 1.2a % | Plant Injury ([7]; 100 g a.i. ha^−1, 21 DAT): 3.8a % | Plant Injury ([7]; 100 g a.i. ha^−1, 28 DAT): 2.5a % | Dry Weight ([7]; 100 g a.i. ha^−1, 42 DAT): 2.0a grams | Plant Injury ([7]; 200 g a.i. ha^−1, 7 DAT): 1.7a % | Plant Injury ([7]; 200 g a.i. ha^−1, 14 DAT): 0.0a % | Plant Injury ([7]; 200 g a.i. ha^−1, 21 DAT): 0.0a % | Plant Injury ([7]; 200 g a.i. ha^−1, 28 DAT): 0.0a % | Dry Weight ([7]; 200 g a.i. ha^−1, 42 DAT): 1.9a grams | Plant Injury ([7]; 400 g a.i. ha^−1, 7 DAT): 3.8a % | Plant Injury ([7]; 400 g a.i. ha^−1, 14 DAT): 0.0a % | Plant Injury ([7]; 400 g a.i. ha^−1, 21 DAT): 2.5a % | Plant Injury ([7]; 400 g a.i. ha^−1, 28 DAT): 0.0a % | Dry Weight ([7]; 400 g a.i. ha^−1, 42 DAT): 2.0a grams | Plant Injury ([7]; 800 g a.i. ha^−1, 7 DAT): 1.2a % | Plant Injury ([7]; 800 g a.i. ha^−1, 14 DAT): 1.2a % | Plant Injury ([7]; 800 g a.i. ha^−1, 21 DAT): 3.8a % | Plant Injury ([7]; 800 g a.i. ha^−1, 28 DAT): 1.2a % | Dry Weight ([7]; 800 g a.i. ha^−1, 42 DAT): 2.0a grams | Plant Injury ([7]; 1600 g a.i. ha^−1, 7 DAT): 4.3a % | Plant Injury ([7]; 1600 g a.i. ha^−1, 14 DAT): 0.0a % | Plant Injury ([7]; 1600 g a.i. ha^−1, 21 DAT): 3.8a % | Plant Injury ([7]; 1600 g a.i. ha^−1, 28 DAT): 1.2a % | Dry Weight ([7]; 1600 g a.i. ha^−1, 42 DAT): 1.5a grams | Plant Injury ([7]; 3200 g a.i. ha^−1, 7 DAT): 8.3a % | Plant Injury ([7]; 3200 g a.i. ha^−1, 14 DAT): 7.5a % | Plant Injury ([7]; 3200 g a.i. ha^−1, 21 DAT): 5.5a % | Plant Injury ([7]; 3200 g a.i. ha^−1, 28 DAT): 4.2b % | Dry Weight ([7]; 3200 g a.i. ha^−1, 42 DAT): 1.6a grams | maximum injury score observed ([7]; at 3200 g ai ha^−1): 7.5%
